Experimental data taken from patent US20060025474A1, “Bisphenyl compounds useful as vitamin D3 receptor agonists” (priority 2004, published 2006).

Assays:
[1] = system: ovariectomized (OVX) rats; experiment: Bone mineral density in the ovariectomized (OVX) rats (1); assay type: in vivo, Sprague-Dawley rats; conditions: orally five times a week for 4 weeks; for Spinal BMD: L2-L4
Procedure: Bone Mineral Density in the Ovariectomized (OVX) Rats (1)
The compounds of the present invention were prepared as exemplified above, dissolved in a vehicle (medium chain triglyceride, MCT) and diluted to a given concentration. The stock solutions were protected from light and stored at 4° C.
Eight-month-old female Sprague-Dawley (Crl:CD(SD)) rats were purchased from Charles River Japan Inc. (Kanagawa, Japan) and acclimated under standard laboratory conditions at 24±2° C. and 50-60% humidity. The rats were allowed free access to tap water and commercial standard rodent chow CE-2 (Clea Japan Inc., Japan).
Sham-operated (n=8) and the ovariectomized (OVX) rats were used. The OVX rats were divided into each group (n=8) one day after the surgery. In the sham and OVX control groups, rats received the vehicle (MCT) p.o. at a dose of 1 ml/kg body weight (BW) five times a week. Each compound was given orally five times a week for 4 weeks. These animal studies were carried out in accordance with Chugai Pharmaceutical's ethical guidelines for animal care, and the experimental protocols were approved by the animal care committee of the institution.
During the 24 hours from the last administration, urine was collected with metabolic cage, and blood was drawn from the abdominal aorta under ether anesthesia. Blood and urine samples were centrifuged to obtain the supernatant, which were stored at −20° C. until assay. The lumbar vertebrae and femur were removed. The lumbar vertebra and the right femur were stored in 70% ethanol at 4° C. for the measurement of bone mineral density (BMD).
Serum and Urine Biochemistry
Serum calcium (Ca) and inorganic phosphorus (Pi) concentrations were measured with an autoanalyzer (Hitachi 7170, Tokyo, Japan). The serum osteocalcin concentration was measured with Osteocalcin rat ELISA system (Amersham Pharmacia Biotech, Tokyo, Japan). Urinary Ca, Pi, and creatinine (Cre) were measured with an autoanalyzer. Urinary deoxypyridinoline (D-Pyr) was measured using a Metra DPD EIA kit (Quidel Co., USA), and the data were corrected for urinary Cre concentrations.
Measurement of Bone Mineral Density
The second through fourth lumbar vertebaral (L2-L4) BMD (mg/cm^2) and femoral BMD were measured by dual-energy X-ray absorptiometry (DCS-600-EX, Aloka, Japan).

[2] = system: ECAC2 mRNA in Caco-2 cells; assay type: cell-based
Summary of the method: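 Caco-2 cells grown 4 days, then exposed 1 day at 37° C to compounds in medium with 10% FBS, refreshed twice daily. ECAC2 mRNA by one-step TaqMan RT-PCR, normalized to GAPDH. EC50 from Emax model, expressed as ratio to LG190178 EC50.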

Row | Structure (SMILES) | serum Ca ([1]; 0.75 microgram/kg/week) | Spinal BMD ([1]; 0.75 microgram/kg/week) | ECaC-2 mRNA induction activity in Caco-2 cells [2] | serum Ca ([1]; 7.5 microgram/kg/week) | Spinal BMD ([1]; 7.5 microgram/kg/week)
1 | CCC(CC)(c1ccc(CCC(O)C(C)(C)C)c(C)c1)c1ccc(OC[C@H](O)CCC(=O)[O-])c(C)c1.[Na+] (stereo partly drawn) [Example 140, 5-(4-{1-Ethyl-1-[4-(3-hydroxy-4,4-dimethyl-pentyl)-3-methyl-phenyl]-propyl}-2-methyl-phenoxy)-4(R)-hydroxy-pentanoic acid sodium salt] | 10.0 mg/dL | 186.6 mg/cm2 | 53% |  | 
2 | CCC(CC)(c1ccc(CCC(O)C(C)(C)C)c(C)c1)c1ccc(OC[C@H](O)CCC(=O)[O-])c(C)c1.[Na+] (stereo partly drawn) [Example 141, 5-(4-{1-Ethyl-1-[4-(3-hydroxy4,4-dimethyl-pentyl)-3-methyl-phenyl]-propyl}-2-methyl-phenoxy)4(R)-hydroxy-pentanoic acid sodium salt] |  |  | 31% | 10.1 mg/dL | 184.4 mg/cm2
